Activity calls are given as the source filed them. The rule behind the calls is not given here.
Assays:
[1] = molecular target: T1, DNA topoisomerase 1 (Homo sapiens) (UniProt P11387); experiment: Inhibition of human DNA topoisomerase 1 assessed as intercalate into DNA at 312 uM
T1 sequence (whole entry): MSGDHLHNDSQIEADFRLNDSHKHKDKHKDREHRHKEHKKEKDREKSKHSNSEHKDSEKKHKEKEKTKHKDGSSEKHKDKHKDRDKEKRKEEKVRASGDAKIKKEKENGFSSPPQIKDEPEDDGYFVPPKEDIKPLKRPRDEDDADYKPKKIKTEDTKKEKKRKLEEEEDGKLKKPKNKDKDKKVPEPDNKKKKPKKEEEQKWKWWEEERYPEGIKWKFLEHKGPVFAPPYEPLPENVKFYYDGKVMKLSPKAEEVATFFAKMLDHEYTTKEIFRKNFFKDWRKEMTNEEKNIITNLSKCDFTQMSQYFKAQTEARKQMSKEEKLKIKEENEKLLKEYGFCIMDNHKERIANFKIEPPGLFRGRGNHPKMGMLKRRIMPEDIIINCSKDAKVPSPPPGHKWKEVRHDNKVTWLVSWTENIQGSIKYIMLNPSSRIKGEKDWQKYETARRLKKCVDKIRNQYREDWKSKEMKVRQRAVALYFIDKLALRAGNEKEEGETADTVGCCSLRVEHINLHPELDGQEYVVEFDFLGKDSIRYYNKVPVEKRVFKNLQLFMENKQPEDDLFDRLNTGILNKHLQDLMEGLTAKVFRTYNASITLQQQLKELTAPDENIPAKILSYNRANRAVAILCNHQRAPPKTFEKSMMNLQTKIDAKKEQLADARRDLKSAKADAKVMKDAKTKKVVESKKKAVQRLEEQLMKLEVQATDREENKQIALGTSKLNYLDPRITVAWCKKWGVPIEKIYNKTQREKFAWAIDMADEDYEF

[2] = molecular target: T1, DNA topoisomerase 1 (Homo sapiens); experiment: Inhibition of human DNA topoisomerase 1-mediated relaxation of supercoiled DNA at 312 uM
[3] = molecular target: T1, DNA topoisomerase 1 (Homo sapiens); experiment: Inhibition of human DNA topoisomerase 1-mediated relaxation of supercoiled DNA at 450 uM
DNA topoisomerase 1 [4] = molecular target: T2, DNA topoisomerase 1 (Homo sapiens, UniProt P11387); experiment: Inhibition of human DNA topoisomerase 1 at free enzyme state
T2 sequence (P11387 whole entry): T1 sequence (whole entry)

[5] = molecular target: T1, DNA topoisomerase 1 (Homo sapiens); experiment: Inhibition of human DNA topoisomerase 1 assessed as prevention of DNA-enzyme complex formation
[6] = molecular target: T1, DNA topoisomerase 1 (Homo sapiens); experiment: Inhibition of human DNA topoisomerase 1 assessed as stabilize DNA-enzyme covalent complex
DNA topoisomerase 1 [7] = molecular target: T2, DNA topoisomerase 1; experiment: Inhibition of human DNA topoisomerase 1-mediated relaxation of supercoiled DNA by gel electrophoresis
[8] = molecular target: DNA topoisomerase 2-alpha (Homo sapiens, UniProt P11388); experiment: Inhibition of human DNA topoisomerase 2-mediated relaxation of supercoiled DNA by gel electrophoresis
Chain of DNA topoisomerase 2-alpha (P11388 whole entry): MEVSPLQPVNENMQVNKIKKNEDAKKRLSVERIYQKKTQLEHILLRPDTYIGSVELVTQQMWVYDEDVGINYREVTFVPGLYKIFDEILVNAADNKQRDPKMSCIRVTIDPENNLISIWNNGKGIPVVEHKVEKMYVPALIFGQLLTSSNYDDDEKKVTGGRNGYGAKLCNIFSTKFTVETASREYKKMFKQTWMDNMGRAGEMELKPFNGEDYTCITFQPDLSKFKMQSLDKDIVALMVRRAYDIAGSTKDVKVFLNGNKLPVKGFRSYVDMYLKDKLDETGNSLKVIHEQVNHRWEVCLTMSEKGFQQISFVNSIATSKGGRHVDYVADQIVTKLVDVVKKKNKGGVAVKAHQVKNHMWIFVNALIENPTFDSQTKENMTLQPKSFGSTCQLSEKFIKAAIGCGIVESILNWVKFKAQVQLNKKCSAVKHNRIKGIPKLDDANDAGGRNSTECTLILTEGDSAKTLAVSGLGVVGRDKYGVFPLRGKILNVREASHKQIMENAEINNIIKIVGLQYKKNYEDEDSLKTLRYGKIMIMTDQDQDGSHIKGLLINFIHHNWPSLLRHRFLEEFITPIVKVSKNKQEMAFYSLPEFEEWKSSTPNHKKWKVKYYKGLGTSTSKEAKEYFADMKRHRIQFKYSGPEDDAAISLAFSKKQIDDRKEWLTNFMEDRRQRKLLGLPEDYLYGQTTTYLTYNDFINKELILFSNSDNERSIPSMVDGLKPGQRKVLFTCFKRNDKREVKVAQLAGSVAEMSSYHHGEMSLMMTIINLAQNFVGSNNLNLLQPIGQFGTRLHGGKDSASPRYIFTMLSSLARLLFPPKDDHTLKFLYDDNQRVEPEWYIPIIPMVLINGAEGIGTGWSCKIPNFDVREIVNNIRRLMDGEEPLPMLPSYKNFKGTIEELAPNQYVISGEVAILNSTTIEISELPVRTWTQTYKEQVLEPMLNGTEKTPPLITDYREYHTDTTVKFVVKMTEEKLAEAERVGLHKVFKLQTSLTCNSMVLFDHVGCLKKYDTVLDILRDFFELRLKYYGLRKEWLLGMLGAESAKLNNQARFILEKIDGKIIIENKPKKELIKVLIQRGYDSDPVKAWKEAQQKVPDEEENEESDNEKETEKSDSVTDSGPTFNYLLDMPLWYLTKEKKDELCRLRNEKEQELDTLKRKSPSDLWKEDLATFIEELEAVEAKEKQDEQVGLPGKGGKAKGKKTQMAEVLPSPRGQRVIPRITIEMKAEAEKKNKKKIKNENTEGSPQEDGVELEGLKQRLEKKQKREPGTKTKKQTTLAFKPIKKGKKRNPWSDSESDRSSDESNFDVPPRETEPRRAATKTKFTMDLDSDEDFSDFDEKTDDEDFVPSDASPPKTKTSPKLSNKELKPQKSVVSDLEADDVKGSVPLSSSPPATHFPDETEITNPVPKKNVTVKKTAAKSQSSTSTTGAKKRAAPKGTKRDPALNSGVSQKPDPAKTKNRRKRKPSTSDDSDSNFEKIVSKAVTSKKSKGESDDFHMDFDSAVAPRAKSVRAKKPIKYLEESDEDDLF

A549 [9] = experiment: Cytotoxicity against human A549 cells after 48 hrs by WST8 assay; format: functional; conditions: A549, 48 h
PC-3 [10] = experiment: Cytotoxicity against human PC3 cells after 48 hrs by WST8 assay; format: functional; conditions: PC-3, 48 h
HL-60 [11] = experiment: Cytotoxicity against human HL60 cells after 48 hrs by WST8 assay; format: functional; conditions: HL-60, 48 h
PANC-1 [12] = experiment: Cytotoxicity against human PANC1 cells at 25 uM after 48 hrs by WST8 assay; format: functional, cell-based
[13] = Cytotoxicity against human MRC5 cells after 48 hrs by WST8 assay; format: cell-based
PANC-1 [14] = experiment: Cytotoxicity against human PANC1 cells after 48 hrs by WST8 assay; format: functional; conditions: PANC-1, 48 h
[15] = molecular target: T1, DNA topoisomerase 1 (Homo sapiens); experiment: Inhibition of human DNA topoisomerase 1-mediated relaxation of supercoiled DNA at 63 uM
[16] = molecular target: T1, DNA topoisomerase 1 (Homo sapiens); experiment: Inhibition of human DNA topoisomerase 1-mediated relaxation of supercoiled DNA at 63 to 125 uM
MRC5 = experiment: Cytotoxicity against human MRC5 cells at 25 uM after 48 hrs by WST8 assay; format: cell-based; conditions: mrc5, 48 h
[17] = molecular target: T1, DNA topoisomerase 1 (Homo sapiens); experiment: Inhibition of human DNA topoisomerase 1-mediated relaxation of supercoiled DNA at >125 uM
A549 [18] = experiment: Cytotoxicity against human A549 cells at 25 uM after 48 hrs by WST8 assay; format: functional, cell-based
PC-3 [19] = experiment: Cytotoxicity against human PC3 cells at 25 uM after 48 hrs by WST8 assay; format: functional, cell-based
HL-60 [20] = experiment: Cytotoxicity against human HL60 cells at 25 uM after 48 hrs by WST8 assay; format: functional, cell-based

Row | SMILES | Activity [1] | inhibition [2] | inhibition [3] | IC50 (DNA topoisomerase 1 [4]) [µM] | inhibition [5] | inhibition [6] | IC50 (DNA topoisomerase 1 [7]) [µM] | IC50 [8] [µM] | GI50 (A549 [9]) [µM] | GI50 (PC-3 [10]) [µM] | GI50 (HL-60 [11]) [µM] | growth inhibition (GI) (PANC-1 [12]) | GI50 at 48 h [13] [µM] | GI50 (PANC-1 [14]) [µM] | growth inhibition (GI) (MRC5) | inhibition [17] | further results
1 | C/C=C(/C)C(=O)O[C@H]1[C@H](O)[C@]2(CO)[C@H](O)C[C@]3(C)C(=CC[C@@H]4[C@@]5(C)CC[C@H](O[C@@H]6O[C@H](C(=O)O)[C@@H](O)[C@H](O[C@@H]7O[C@@H](CO)[C@H](O)[C@H]7O)[C@H]6O[C@@H]6O[C@H](CO)[C@H](O)[C@H](O)[C@H]6O)C(C)(C)[C@@H]5CC[C@]43C)[C@@H]2CC1(C)C [AESCULIOSIDE IIC] | Active | inactive | Active | 23.8 | Active | inactive | 111 | > 250 | 8.67 | 16.3 | 5.75 | inactive | 11.2 | – | – | – | –
2 | C/C=C(/C)C(=O)O[C@H]1[C@H](O)[C@]2(COC(C)=O)[C@H](O)C[C@]3(C)C(=CC[C@@H]4[C@@]5(C)CC[C@H](O[C@@H]6O[C@H](C(=O)O)[C@@H](O)[C@H](O[C@@H]7O[C@@H](CO)[C@H](O)[C@H]7O)[C@H]6O[C@@H]6O[C@H](CO)[C@@H](O)[C@H](O)[C@H]6O)[C@](C)(CO)[C@@H]5CC[C@]43C)[C@@H]2CC1(C)C [AESCULIOSIDE IIIA] | Active | inactive | Active | 23.8 | Active | inactive | 119 | > 250 | 9.48 | 10.1 | 7.2 | – | 8.65 | 16.7 | – | – | –
3 | C/C=C(/C)C(=O)O[C@H]1[C@H](O)[C@]2(CO)[C@H](O)C[C@]3(C)C(=CC[C@@H]4[C@@]5(C)CC[C@H](O[C@@H]6O[C@H](C(=O)O)[C@@H](O)[C@H](O[C@@H]7O[C@@H](CO)[C@H](O)[C@H]7O)[C@H]6O)[C@](C)(CO)[C@@H]5CC[C@]43C)[C@@H]2CC1(C)C [AESCULIOSIDE IID] | Active | inactive | Active | 23.8 | Active | inactive | 23.8 | > 250 | 12.9 | 5.51 | 7.5 | – | 15.4 | 10.3 | – | – | inhibition [15]: Active
4 | C/C=C(/C)C(=O)O[C@H]1[C@H](OC(=O)/C(C)=C\C)[C@]2(CO)[C@H](O)C[C@]3(C)C(=CC[C@@H]4[C@@]5(C)CC[C@H](O[C@@H]6O[C@H](C(=O)O)[C@@H](O)[C@H](O[C@@H]7O[C@@H](CO)[C@H](O)[C@H]7O)[C@H]6O[C@@H]6O[C@H](CO)[C@H](O)[C@H](O)[C@H]6O)C(C)(C)[C@@H]5CC[C@]43C)[C@@H]2CC1(C)C | – | – | – | 23.8 | Active | inactive | 27.1 | > 250 | 6.03 | 3.26 | 1.97 | – | 7.43 | 11.9 | – | – | inhibition [15]: Active; inhibition [16]: Active
5 | C/C=C(/C)C(=O)O[C@H]1[C@H](OC(=O)C(C)C)[C@]2(CO)[C@H](O)[C@H](O)[C@]3(C)C(=CC[C@@H]4[C@@]5(C)CC[C@H](O[C@@H]6O[C@H](C(=O)O)[C@@H](O)[C@H](O[C@@H]7O[C@@H](CO)[C@H](O)[C@H]7O)[C@H]6O[C@@H]6O[C@H](CO)[C@@H](O)[C@H](O)[C@H]6O)[C@](C)(CO)[C@@H]5CC[C@]43C)[C@@H]2CC1(C)C [AESCULIOSIDE IIIB] | Active | inactive | Active | 23.8 | Active | inactive | 160 | > 250 | 11.2 | 9.93 | 10.9 | inactive | – | – | Not Active | – | –
6 | C/C=C(\C)C(=O)O[C@H]1[C@H](OC(=O)C(C)CC)[C@]2(CO)[C@H](O)[C@H](O)[C@]3(C)C(=CC[C@@H]4[C@@]5(C)CC[C@H](O[C@@H]6O[C@H](C(=O)O)[C@@H](O)[C@H](O[C@@H]7O[C@@H](CO)[C@H](O)[C@H]7O)[C@H]6O[C@@H]6O[C@H](CO)[C@H](O)[C@H](O)[C@H]6O)C(C)(C)[C@@H]5CC[C@]43C)[C@@H]2CC1(C)C (some centres not stated) [AESCULIOSIDE IIIC] | Active | – | Active | – | – | – | 132 | > 250 | 17.6 | 12.5 | 13.6 | – | – | 18.5 | Not Active | – | –
7 | C/C=C(/C)C(=O)O[C@H]1[C@H](OC(C)=O)[C@]2(CO)[C@H](O)C[C@]3(C)C(=CC[C@@H]4[C@@]5(C)CC[C@H](O[C@@H]6O[C@H](C(=O)O)[C@@H](O)[C@H](O[C@@H]7O[C@@H](CO)[C@H](O)[C@H]7O)[C@H]6O[C@@H]6O[C@H](CO)[C@H](O)[C@H](O)[C@H]6O)C(C)(C)[C@@H]5CC[C@]43C)[C@@H]2CC1(C)C [AESCULIOSIDE IIK] | – | – | – | – | – | – | > 250 | > 250 | 15.1 | 8.35 | 8.75 | – | 9.89 | 21.5 | – | Active | –
8 | C/C=C(\C)C(=O)O[C@H]1[C@H](OC(=O)/C(C)=C/C)[C@]2(CO)[C@H](O)[C@H](O)[C@]3(C)C(=CC[C@@H]4[C@@]5(C)CC[C@H](O[C@@H]6O[C@H](C(=O)O)[C@@H](O)[C@H](O[C@@H]7O[C@@H](CO)[C@H](O)[C@H]7O)[C@H]6O[C@@H]6O[C@H](CO)[C@@H](O)[C@H](O)[C@H]6O)C(C)(C)[C@@H]5CC[C@]43C)[C@@H]2CC1(C)C [AESCULIOSIDE IIIF] | – | – | – | – | – | – | 53.7 | > 250 | > 25 | 11.7 | 14.2 | – | > 25 | 23.5 | – | Active | inhibition [16]: Active
9 | C/C=C(\C)C(=O)O[C@H]1[C@H](OC(C)=O)[C@]2(CO)[C@H](O)[C@H](O)[C@]3(C)C(=CC[C@@H]4[C@@]5(C)CC[C@H](O[C@@H]6O[C@H](C(=O)O)[C@@H](O)[C@H](O[C@@H]7O[C@@H](CO)[C@H](O)[C@H]7O)[C@H]6O[C@@H]6O[C@H](CO)[C@@H](O)[C@H](O)[C@H]6O)[C@](C)(CO)[C@@H]5CC[C@]43C)[C@@H]2CC1(C)C [AESCULIOSIDE IIE] | – | – | – | – | – | – | – | – | – | – | – | inactive | – | – | Not Active | Active | growth inhibition (GI) (A549 [18]): inactive; growth inhibition (GI) (PC-3 [19]): inactive; growth inhibition (GI) (HL-60 [20]): inactive

From ChEMBL document CHEMBL1157938, “Cytotoxicity and inhibition of DNA topoisomerase I of polyhydroxylated triterpenoids and triterpenoid glycosides” (Bioorg Med Chem Lett, 2010)
